Source: US8697739B2, “Bicyclic acetyl-CoA carboxylase inhibitors and uses thereof” (Novartis AG, priority 2010, dated 2014)

Target: T1, human acetyl-CoA carboxylase 2 (ACC2) (Homo sapiens, UniProt O00763)
T1 construct: The cDNA encoding amino acids 144 to 2458 of human acetyl-CoA carboxylase 2; made in house; host or cells: Sf9 insect cells (baculovirus, pFastBac1)
Test: Acetyl-CoA carboxylase enzyme assay (malonyl-CoA formation by LC/MS/MS)
Assay type: biochemical
Details: recombinant human ACC2 (aa 144-2458); read-out: IC50 ACC2
Procedure, shortened: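 Malonyl-CoA formation was read by LC/MS/MS MRM against a [13C3]-malonyl-CoA internal standard, after acetic acid quench. The enzyme was baculovirus/Sf9-expressed human ACC2 residues 144–2458, given 15 minutes room-temperature compound preincubation in HEPES pH 7.5 buffer with MgCl2, citrate and DTT. Substrate solution held 50 μM acetyl-CoA, 120 μM ATP and 2 mM KHCO3.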

T1 sequence (O00763 144-2458): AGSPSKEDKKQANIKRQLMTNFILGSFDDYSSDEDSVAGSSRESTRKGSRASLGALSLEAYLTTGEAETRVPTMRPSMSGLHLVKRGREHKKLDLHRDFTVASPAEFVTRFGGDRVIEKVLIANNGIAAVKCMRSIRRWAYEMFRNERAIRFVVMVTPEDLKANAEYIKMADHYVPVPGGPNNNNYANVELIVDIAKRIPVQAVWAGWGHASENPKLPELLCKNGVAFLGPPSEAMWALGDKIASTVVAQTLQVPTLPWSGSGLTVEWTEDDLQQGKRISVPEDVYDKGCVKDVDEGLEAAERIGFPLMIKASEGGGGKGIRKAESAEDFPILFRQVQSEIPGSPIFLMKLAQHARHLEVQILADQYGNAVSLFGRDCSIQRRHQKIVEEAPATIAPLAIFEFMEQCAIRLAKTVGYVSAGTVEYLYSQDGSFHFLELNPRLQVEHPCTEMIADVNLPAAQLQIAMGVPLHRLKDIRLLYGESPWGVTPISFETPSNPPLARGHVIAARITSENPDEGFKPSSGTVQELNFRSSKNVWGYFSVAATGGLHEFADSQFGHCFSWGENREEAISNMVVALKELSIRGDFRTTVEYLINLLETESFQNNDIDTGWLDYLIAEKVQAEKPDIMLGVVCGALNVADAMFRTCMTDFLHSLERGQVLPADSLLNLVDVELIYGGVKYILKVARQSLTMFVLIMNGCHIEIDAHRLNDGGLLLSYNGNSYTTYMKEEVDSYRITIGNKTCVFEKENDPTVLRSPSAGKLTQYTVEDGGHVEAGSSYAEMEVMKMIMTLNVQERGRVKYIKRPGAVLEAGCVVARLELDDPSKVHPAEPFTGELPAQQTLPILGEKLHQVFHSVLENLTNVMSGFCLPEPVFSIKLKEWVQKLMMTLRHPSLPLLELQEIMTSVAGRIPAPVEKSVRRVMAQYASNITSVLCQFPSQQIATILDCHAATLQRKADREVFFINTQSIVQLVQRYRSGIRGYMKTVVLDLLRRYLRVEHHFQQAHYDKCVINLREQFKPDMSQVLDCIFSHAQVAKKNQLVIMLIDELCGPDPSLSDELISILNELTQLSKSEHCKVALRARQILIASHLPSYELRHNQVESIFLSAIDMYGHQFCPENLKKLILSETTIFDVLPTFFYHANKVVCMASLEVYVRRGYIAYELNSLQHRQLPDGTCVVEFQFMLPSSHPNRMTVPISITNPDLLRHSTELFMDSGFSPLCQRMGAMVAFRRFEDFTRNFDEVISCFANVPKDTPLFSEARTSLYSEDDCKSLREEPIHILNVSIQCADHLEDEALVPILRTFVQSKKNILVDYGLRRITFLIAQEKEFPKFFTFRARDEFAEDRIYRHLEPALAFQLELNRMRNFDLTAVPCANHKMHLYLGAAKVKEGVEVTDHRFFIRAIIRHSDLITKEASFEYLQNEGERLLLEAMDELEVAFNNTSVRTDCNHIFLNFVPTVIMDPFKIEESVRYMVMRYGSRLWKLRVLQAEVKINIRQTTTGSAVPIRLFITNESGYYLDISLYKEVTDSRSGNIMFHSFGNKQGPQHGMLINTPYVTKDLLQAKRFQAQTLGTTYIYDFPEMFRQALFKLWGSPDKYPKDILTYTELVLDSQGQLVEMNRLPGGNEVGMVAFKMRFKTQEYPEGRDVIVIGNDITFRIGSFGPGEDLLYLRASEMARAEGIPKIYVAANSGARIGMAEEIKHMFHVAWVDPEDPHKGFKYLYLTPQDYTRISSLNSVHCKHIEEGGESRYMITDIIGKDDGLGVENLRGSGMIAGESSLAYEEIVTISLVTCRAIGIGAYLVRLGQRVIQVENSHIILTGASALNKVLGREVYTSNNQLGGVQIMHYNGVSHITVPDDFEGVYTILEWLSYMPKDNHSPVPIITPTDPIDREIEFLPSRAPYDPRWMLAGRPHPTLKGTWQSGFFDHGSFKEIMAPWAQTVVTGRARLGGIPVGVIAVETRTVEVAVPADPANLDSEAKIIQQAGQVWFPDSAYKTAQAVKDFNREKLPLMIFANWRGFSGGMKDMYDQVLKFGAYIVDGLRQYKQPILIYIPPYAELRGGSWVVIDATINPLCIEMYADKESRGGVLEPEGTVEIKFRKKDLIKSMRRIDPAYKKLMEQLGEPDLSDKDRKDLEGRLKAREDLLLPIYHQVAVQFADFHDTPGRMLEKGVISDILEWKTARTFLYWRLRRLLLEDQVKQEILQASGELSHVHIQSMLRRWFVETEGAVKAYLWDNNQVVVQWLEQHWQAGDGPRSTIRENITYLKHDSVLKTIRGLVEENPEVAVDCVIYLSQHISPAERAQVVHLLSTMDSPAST

Row | Compound | IC50
1 | C[C@@H](NC(=O)[C@H]1CC[C@H](NS(=O)(=O)c2ccc3ncsc3c2)CC1)c1ccc(F)cc1 [Example 113, (1r,4R)-4-(benzo[d]thiazole-6-surfonamido)-N-((R)-1-(4-fluorophenyl)ethyl)cyclohexanecarboxamide] | 212 nM
2 | C[C@@H](NC(=O)[C@H]1CC[C@H](NS(=O)(=O)c2ccc3[nH]c([C@@H]4CCCO4)nc3c2)CC1)c1ccc(F)cc1 [Example 114, (1r,4R)-N-((R)-1-(4-fluorophenyl)ethyl)-4-(2-((S)-tetrahydrofuran-2-yl)-1H-benzo[d]imidazole-5-sulfonamido)cyclohexanecarboxamide] | 296 nM
3 | C[C@@H](NC(=O)[C@H]1CC[C@H](NC(=O)c2ccc3cc(-c4ccccc4)[nH]c3c2)CC1)c1ccc(F)cc1 [Example 115, N-((1R,4r)-4-((R)-1-(4-fluorophenyl)ethylcarbamoyl)cyclohexyl)-2-phenyl-1H-indole-6-carboxamide] | 29100 nM
4 | CC(C)[Si](C(C)C)(C(C)C)n1cc(Cl)c2ccc(S(=O)(=O)N[C@H]3CC[C@H](C(=O)N[C@H](C)c4ccc(F)cc4)CC3)cc21 [Example 116, (1r,4R)-4-(3-chloro-1-(triisopropylsilyl)-1H-indole-6-sulfonamido)-N-((R)-1-(4-fluorophenyl)ethyl)cyclohexanecarboxamide] | 13 nM
5 | C[C@@H](NC(=O)[C@H]1CC[C@H](NS(=O)(=O)c2ccc3[nH]c([C@H]4CCCO4)nc3c2)CC1)c1ccc(F)cc1 [Example 117, (1r,4R)-N-((R)-1-(4-fluorophenyl)ethyl)-4-(2-((R)-tetrahydrofuran-2-yl)-1H-benzo[d]imidazole-5-sulfonamido)cyclohexanecarboxamide] | 574 nM
6 | C[C@@H](NC(=O)[C@H]1CC[C@H](NS(=O)(=O)c2ccc3[nH]c([C@@H]4CC(F)(F)CN4)nc3c2)CC1)c1ccc(F)cc1 [Example 118, (1r,4R)-4-(2-((S)-4,4-difluoropyrrolidin-2-yl)-1H-benzo[d]imidazole-5-sulfonamido)-N-((R)-1-(4-fluorophenyl)ethyl)cyclohexanecarboxamide] | 1750 nM
7 | C[C@@H](NC(=O)[C@H]1CC[C@H](NS(=O)(=O)c2ccc3c(c2)CCC3)CC1)c1ccc(F)cc1 [Example 119, (1r,4R)-4-(2,3-dihydro-1H-indene-5-sulfonamido)-N-((R)-1-(4-fluorophenyl)ethyl)cyclohexanecarboxamide] | 161 nM
8 | C[C@@H](NC(=O)[C@H]1CC[C@H](NS(=O)(=O)c2ccc3nc(-c4ccccc4)sc3c2)CC1)c1ccc(F)cc1 [Example 120, (1r,4R)-N-((R)-1-(4-fluorophenyl)ethyl)-4-(2-phenylbenzo[d]thiazole-6-sulfonamido)cyclohexanecarboxamide] | 34 nM
9 | C[C@@H](NC(=O)[C@H]1CC[C@H](NS(=O)(=O)c2ccc3[nH]c(-c4ccccc4)nc3c2)CC1)C1CCCCC1 [Example 121, (1r,4R)-N-((R)-1-cyclohexylethyl)-4-(2-phenyl-1H-benzo[d]imidazole-5-sulfonamido)cyclohexanecarboxamide] | 17 nM
10 | C[C@@H](NC(=O)[C@H]1CC[C@H](NS(=O)(=O)c2ccc3c(c2)OCCN3C)CC1)c1ccc(F)cc1 [Example 122, (1r,4R)-N-((R)-1-(4-fluorophenyl)ethyl)-4-(4-methyl-3,4-dihydro-2H-benzo[b][1,4]oxazine-7-sulfonamido)cyclohexanecarboxamide] | 16 nM
11 | C[C@@H](NC(=O)[C@H]1CC[C@H](NS(=O)(=O)c2ccc3c(c2)OCCO3)CC1)c1ccc(F)cc1 [Example 123, (1r,4R)-4-(2,3-dihydrobenzo[b][1,4]dioxine-6-sulfonamido)-N-((R)-1-(4-fluorophenyl)ethyl)cyclohexanecarboxamide] | 450 nM
12 | Cc1c(Cl)[nH]c2ccc(S(=O)(=O)N[C@H]3CC[C@H](C(=O)N[C@H](C)c4ccc(F)cc4)CC3)cc12 [Example 124, (1r,4R)-4-(2-chloro-3-methyl-1H-indole-5-sulfonamido)-N-((R)-1-(4-fluorophenyl)ethyl)cyclohexanecarboxamide] | 32 nM
13 | C[C@@H]1CCCN1C(=O)[C@H]1CC[C@H](NS(=O)(=O)c2ccc3[nH]c(-c4ccccc4)nc3c2)CC1 [Example 125, N-((1R,4r)-4-((R)-2-methylpyrrolidine-1-carbonyl)cyclohexyl)-2-phenyl-1H-benzo[d]imidole-5-sulfonamide] | 58 nM
14 | COCCn1c(-c2ccccc2)nc2cc(S(=O)(=O)N[C@H]3CC[C@H](C(=O)N[C@H](C)c4ccc(F)cc4)CC3)ccc21 [Example 126, (1r,4R)-N-((R)-1-(4-fluorophenyl)ethyl)-4-(1-(2-methoxyethyl)-2-phenyl-1H-benzo[d]imidazole-5-sulfonamido)cyclohexanecarboxamide] | 71 nM
15 | C[C@@H](NC(=O)[C@H]1CC[C@H](NS(=O)(=O)c2cnc3c(c2)OCCN3C)CC1)c1ccc(F)cc1 [Example 127, (1r-4R)-N-((R)-1-(4-fluorophenyl)ethyl)-4-(4-methyl-3,4-dihydro-2H-pyrido[3,2-b][1,4]oxazine-7-sulfonamido)cyclohexanecarboxamide] | 391 nM
16 | C[C@@H](NC(=O)[C@H]1CC[C@H](NS(=O)(=O)c2cnc3c(c2)N(C)CCCN3C)CC1)c1ccc(F)cc1 [Example 128, (1r,4R)-4-(1,5-dimethyl-2,3,4,5-tetrahydro-1H-pyrido[2,3-b][1,4]diazepine-8-sulfonamido)-N-((R)-1-(4-fluorophenyl)ethyl)cyclohexanecarboxamide] | 146 nM
17 | C[C@@H]1CCCN1C(=O)[C@H]1CC[C@H](NS(=O)(=O)c2cnc3c(c2)N(C)CCN3C)CC1 [Example 129, 1,4-dimethyl-N-((1R,4r)-4-((R)-2-methylpyrrolidine-1-carbonyl)cyclohexyl)-1,2,3,4-tetrahydropyrido[3,2-b]pyrazine-7-sulfonamide] | 10400 nM
18 | C[C@@H](NC(=O)[C@H]1CC[C@H](NS(=O)(=O)c2cnc3c(c2)N(C)CCN3)CC1)c1ccc(F)cc1 [Example 130, (1r,4R)-N-((R)-1-(4-fluorophenyl)ethyl)-4-(1-methyl-1,2,3,4-tetrahydropyrido[3,2-b]pyrazine-7-sulfonamido)cyclohexanecarboxamide] | 59 nM
19 | C[C@@H](NC(=O)[C@H]1CC[C@H](NS(=O)(=O)c2cnc3c(c2)N(C)CCO3)CC1)c1ccc(F)cc1 [Example 131, (1r,4R)-N-((R)-1-(4-fluorophenyl)ethyl)-4-(1-methyl-2,3-dihydro-1H-pyrido[2,3-b][1,4]oxazine-7-sulfonamido)cyclohexanecarboxamide] | 173 nM
20 | C[C@@H](NC(=O)[C@H]1CC[C@H](NS(=O)(=O)c2cnc3c(c2)N(C2CC2)CCN3C)CC1)c1ccc(F)cc1 [Example 132, (1r,4R)-4-(1-cyclopropyl-4-methyl-1,2,3,4-tetrahydropyrido[3,2-b]pyrazine-7-surfonamido)-N-((R)-1-(4-fluorophenyl)ethyl)cyclohexanecarboxamide] | 68 nM
21 | C[C@@H](NC(=O)[C@H]1CC[C@H](NS(=O)(=O)c2ccc3c(c2)N(C)CCN3C)CC1)c1ccc(F)cc1 [Example 133, (1r,4R)-4-(1,4-dimethyl-1,2,3,4-tetrahydroquinoxaline-6-sulfonamido)-N-((R)-1-(4-fluorophenyl)ethyl)cyclohexanecarboxamide] | 46 nM
22 | C[C@@H](NC(=O)[C@H]1CC[C@H](NS(=O)(=O)c2cnc3c(c2)N(C)C2CCCCC2N3C)CC1)c1ccc(F)cc1 (stereo partly drawn) [Example 134, (1r,4R)-4-(5,10-dimethyl-5,5a,6,7,8,9,9a,10-octahydropyrido[3,2-b]quinoxaline-3-sulfonamido)-N((R)-1-(4-fluorophenyl)ethyl)cyclohexanecarboxamide] | 28 nM
23 | C[C@@H](NC(=O)[C@H]1CC[C@H](NS(=O)(=O)c2cnc3c(c2)N(CC(F)(F)F)CCN3C)CC1)c1ccc(F)cc1 [Example 135, (1r,4R)-N-((R)-1-(4-fluorophenyl)ethyl)-4-(4-methyl-1-(2,2,2-triffuoroethyl)-1,2,3,4-tetrahydropyrido[3,2-b]pyrazine-7-sulfonamido)cyclohexanecarboxamide] | 157 nM
24 | Cc1ccccc1-c1cc2ccc(S(=O)(=O)N[C@H]3CC[C@H](C(=O)N4CCOCC4)CC3)cc2[nH]1 [Example 136, N-((1R,4r)-4-(morpholine-4-carbonyl)cyclohexyl)-2-o-tolyl-1H-indole-6-sulfonamide] | 187 nM
25 | Cc1ccccc1-c1cc2ccc(S(=O)(=O)N[C@H]3CC[C@H](C(=O)N4CCC[C@H]4C)CC3)cc2[nH]1 [Example 137, N-((1R,4r)-4-((R)-2-methylpyrrolidine-1-carbonyl)cyclohexyl)-2-o-tolyl-1H-indole-6-sulfonamide] | 162 nM
26 | Cc1c[nH]c2ncc(S(=O)(=O)N[C@H]3CC[C@H](C(=O)N[C@H](C)c4ccc(F)cc4)CC3)cc12 [Example 138, (1r,4R)-N-((R)-1-(4-fluorophenyl)ethyl)-4-(3-methyl-1H-pyrrolo[2,3-b]pyridine-5-sulfonamido)cyclohexanecarboxamide] | 147 nM
27 | C[C@@H](NC(=O)[C@H]1CC[C@H](NS(=O)(=O)c2cnc3c(c2)N(C)[C@@H]2CCCC[C@H]2N3C)CC1)c1ccc(F)cc1 [Example 139, (1R,4R)-4-((5aR,9aR)-5,10-dimethyl-5,5a,6,7,8,9,9a,10-octahydropyrido[3,2-b]quinoxaline-3-sulfonamido)-N-((R)-1-(4-fluorophenyl)ethyl)cyclohexanecarboxamide] | 16 nM
28 | Cc1ccnc2ncc(S(=O)(=O)N[C@H]3CC[C@H](C(=O)N[C@H](C)c4ccc(F)cc4)CC3)cc12 [Example 140, (1r,4R)-N-((R)-1-(4-fluorophenyl)ethyl)-4-(5-methyl-1,8-naphthyridine-3-sulfonamido)cyclohexanecarboxamide] | 986 nM
